Test results as given in publication PMC12838479 (Fluids and Barriers of the CNS, 2025).

Assays:
BBB [1] = assay: Single time point (10 min) brain/serum ratio after iv co-injection in control and LPS-treated mice; conditions: for brain region permeability change: 10 min after iv injection, one-way ANOVA per region; for increase in brain/serum ratio (leakiness): three dose LPS vs control
From the text: (§1) Treatment with LPS: Male CD-1 mice were purchased from Charles River and studied at 8–12 weeks of age. All animal studies were approved by the Institutional Animal Care and Use Committee of the Veterans Affairs Puget Sound Health Care System, an IACUC approved institution, in compliance with the Association for Assessment and Accreditation of Laboratory Animal Care International. Lipopolysaccharide (LPS) derived from Salmonella enterica subtype typhimurium (#L6511) was purchased from Sigma Chemical Company. Mice were given IP injections of approximately 0.1 ml of saline at 0, 6, or 24 h with LPS included in no injections, in only the single 0 h injection, or in all (0, 6, and 24 h) injections at a dose of 3 mg/kg LPS. Mice were studied 28 h after the 0 h injection (4 h after the last injection).
(§2) After a specified time, the abdomen was opened and arterial blood obtained from the abdominal aorta and immediately the thorax was opened, the descending thoracic aorta was clamped, both jugular veins were severed, the left ventricle of the heart was cannulated, and 20 ml of cold LR-BSA perfused in 60 s via the left ventricle of the heart in order to wash out the vascular space of the brain. After this, brains were collected and counted in a gamma counter. […] Brain/serum ratios are expressed in units of µl/g.
(§3) In some studies, mice were studied only at 10 min after the jugular injection of radioactivity. For multiple-time regression analysis, mice were sacrificed at 1, 2, 5, 10, 15, and 30 min after the jugular injection.

BBB [2] = assay: Percent of the injected dose that entered each g of brain (%Inj/g), 10 min; assay type: in vivo, mice; conditions: for %Inj/g-brain: 10 min; for increase in %Inj/g-brain: three injections of LPS vs control
From the text: (§4) where t is the time between i.v. injection and blood draw, Cp is the level of radioactivity in serum (expressed as %Inj/ml), Cpt is the level of radioactivity in serum at time t, and τ is the dummy variable for time. Exposure time corrects for the clearance of the compound of interest from blood. The Y-intercept measures Vi (in units of µl/g), which is the vascular space and initial luminal binding at t = 0. Ki and Vi values are reported with their standard errors and the number of mice included in the linear portion of the regression curve. Slopes and intercepts were compared statistically with program in Prism 10.0 (GraphPad Inc, San Diego, CA). The percent of the injected dose that entered each g of brain (%Inj/g) was calculated after washout of the vascular space using the equation: […]
where cpm/g is the level of radioactivity in the brain tissue, g is the weight of the brain tissue, and cpmi is the amount of radioactivity injected intravenously.

[3] = system: human induced pluripotent stem cell (iPSC)-derived brain endothelial-like cells (iBECs); assay: In vitro monolayer iBEC permeability (Transwell leakage) versus TEER; assay type: in vitro ADME; conditions: iBEC monolayers, all TEER levels
Method: In Vitro BBB model: Differentiation of iBECs: The varied TEERs of iBECs were achieved during initial experiments that optimized seeding densities for differentiation of the GM25256 iPSC line. iBECs were differentiated from the GM25256 cell line using protocols described by Hollmann et al.. These resulting iBECs have been previously characterized to have many BEC traits including expression of high TEER levels and GLUT1, CLDN5, VE-Cad, PECAM-1, ZO-1, and OCLN proteins. Briefly, iPSCs were grown in E8 Medium on Matrigel in 6-well plates. When colonies were large and nearly touching, but prior to confluence, iPSCs were washed once with DPBS (Thermo Fisher Scientific) and incubated with Accutase (Stem Cell Technologies) for 3 min to yield a single cell suspension. Cells were collected via centrifugation, resuspended in E8, and counted using a hemocytometer. […] To assess barrier properties, TEER was measured 24 h after subculture using an EVOM2 voltohmeter with an EndOhm cup chamber (World Precision Instruments). […] TEER was measured approximately every 24 h thereafter. […]
Leakage was further assessed after 1–14 days post-subculture by placing in the input medium, consisting of HESFM + 1% BSA, 0.1 µCi ^14C-sucrose and 1 million CPM ^99mTc-DTPA or 3 million CPM ^99mTc-albumin per Transwell. […] Then, the radioactivity was counted in a Tricarb beta counter (Perkin Elmer) to measure ^14C-sucrose levels. […]

BBB [4] = assay: Multiple-time regression analysis of BBB uptake (Ki, Vi) in control and LPS-treated mice; assay type: in vivo
From the text: as §4

[5] = Single time point (10 min) brain/serum ratio after iv co-injection in control and LPS-treated mice; conditions: male, CD-1, mouse, in vivo
From the text: as §1, §2, §3

[6] = 10 min, DTPA and albumin co-injected

Compound: O=C(O)CN(CCN(CC(=O)O)CC(=O)O)CCN(CC(=O)O)CC(=O)O (99mTc complex, metal not drawn) [DTPA, Diethylenetriaminepentaacetic acid]
- mean percent increase in permeability of 4 sessions (BBB [1]; 3 dose injection of LPS, DTPA and sucrose co-injected): 79.2 +/- 16%
- brain region permeability change (BBB [1]; 3 injections of LPS): all regions except the olfactory bulb had a significant increase
- detection of BBB disruption (BBB [1]; 10 min, DTPA and albumin co-injected, LPSx1 and LPSx3): showed disruption at the single dose of LPS as well as at the three doses
- control brain/serum ratio relative to albumin (BBB [1]; 10 min, simultaneous injection of DTPA and albumin, control mice): about 5 fold
- % change of brain/serum ratio relative to respective Control (BBB [1]; LPSx1, Day 1): 12%
- % change of brain/serum ratio relative to respective Control (BBB [1]; LPSx1, Day 2): -0.025%
- % change of brain/serum ratio relative to respective Control (BBB [1]; LPSx1, Repeat Day 2): 29%
- % change of brain/serum ratio relative to respective Control (BBB [1]; LPSx3, Day 1): 79%
- % change of brain/serum ratio relative to respective Control (BBB [1]; LPSx3, Day 2): 57%
- BBB disruption, combined data of 4 sessions (BBB [1]; one injection of LPS): did not disrupt the BBB
- brain region permeability change (BBB [1]; single injection of LPS): No brain region had a statistically significant increase in permeability
- increase in brain/serum ratio (leakiness) (BBB [1]; [6]): 136%
- increase in permeation, combined data of 4 sessions (BBB [1]; three injections of LPS): 69%
- %Inj/g-brain (BBB [2]; control mice): 0.035 %Inj/g-brain
- increase in %Inj/g-brain (BBB [2]): 117%
- %Inj/g-brain (BBB [2]; three injections of LPS): 0.0760 %Inj/g-brain
- in vitro permeability (Pe) compared with simultaneously studied sucrose [3]: essentially identical in vitro results
- Vi (vascular space and initial luminal binding) (BBB [4]; control mice): 1.62 ± 0.29 µL/g
- Vi (vascular space and initial luminal binding) (BBB [4]; single injection of LPS): 1.43 ± 0.334 µL/g
- Vi (vascular space and initial luminal binding) (BBB [4]; three injections of LPS): 1.487 ± 1.104 µL/g

Compound: OC[C@H]1O[C@@](CO)(O[C@H]2O[C@H](CO)[C@@H](O)[C@H](O)[C@H]2O)[C@@H](O)[C@@H]1O [sucrose]
- Kp at 10 min [5]: 0.00402 to 0.00518
- Vi (vascular space and initial luminal binding) (BBB [4]; control mice): 8.43 ± 1.26 µL/g
- Vi (vascular space and initial luminal binding) (BBB [4]; single injection of LPS): 16.2 µL/g
- Vi (vascular space and initial luminal binding) (BBB [4]; three injections of LPS): 14.5 ± 4.82 µL/g

Compound: bovine serum albumin
- increase in brain/serum ratio (leakiness) (BBB [1]; [6]): 111%
- %Inj/g-brain (BBB [2]; control mice): 0.026 %Inj/g-brain
- increase in %Inj/g-brain (BBB [2]): 81%
- %Inj/g-brain (BBB [2]; three injections of LPS): 0.0490 %Inj/g-brain
- in vitro permeability (Pe) compared with simultaneously studied sucrose [3]: much lower penetration than sucrose at all TEER levels
- Vi (vascular space and initial luminal binding) (BBB [4]; control mice): 0.245 ± 0.0431 µL/g
- Vi (vascular space and initial luminal binding) (BBB [4]; single injection of LPS): 0.197 ± 0.0438 µL/g
- Vi (vascular space and initial luminal binding) (BBB [4]; three injections of LPS): 0.325 ± 0.0893 µL/g
